Key:
Type in all cases: in vivo
Poa annua (POAAN) = assay: A. Herbicidal pre-emergence efficacy, POAAN
Procedure, shortened: (§1)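 Applied before emergence onto covering soil at rates of 1280 g/ha or less, using 600 L/ha spray water with 0.5% additive. Scoring: visual % efficacy after ~3 weeks, greenhouse.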

Stellaria media (STEME) = assay: A. Herbicidal pre-emergence efficacy, STEME
Procedure, shortened: as §1

Kochia scoparia (KCHSC) = assay: C. Herbicidal pre-emergence efficacy, KCHSC
Procedure, shortened: (§2)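 Pre-emergence test: formulated compounds sprayed as aqueous suspension or emulsion with 0.5% additive at 600 l/ha onto soil covering sown seeds, at rates corresponding to 320 g/ha or less. After about 3 weeks in greenhouse, efficacy scored visually as percent versus untreated controls (100% = plants dead).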

Setaria viridis (SETVI) = assay: E. Herbicidal post-emergence efficacy, SETVI
Procedure, shortened: (§3)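 Compounds applied at 320 g/ha or less as a foliar spray (600 l/ha, 0.5% additive) to one-leaf-stage greenhouse plants grown in sandy loam. Damage is visually scored in percent relative to untreated plants after about 3 weeks.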

Viola tricolor (VIOTR) = assay: E. Herbicidal post-emergence efficacy, VIOTR
Procedure, shortened: as §3

[1] = test system: Digitaria sanguinalis (DIGSA); assay: B. Herbicidal post-emergence efficacy, DIGSA; settings: rated visually after about 3 weeks
Procedure, shortened: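 Post-emergence greenhouse test: one-leaf-stage plants, compound (WP/EC, +0.5% additive, 600 L/ha water, ≤1280 g/ha) applied to green parts; % efficacy scored visually vs untreated after ~3 wk; 100% = plants died.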

[2] = test system: Abutilon theophrasti (ABUTH); assay: E. Herbicidal post-emergence efficacy, ABUTH
Procedure, shortened: as §3

[3] = test system: Echinochloa crus-galli (ECHCG); assay: E. Herbicidal post-emergence efficacy, ECHCG
Procedure, shortened: as §3

Veronica persica (VERPE) = assay: C. Herbicidal pre-emergence efficacy, VERPE; settings: scored after about 3 weeks
Procedure, shortened: as §2

Structure (SMILES) | Pre-emergence efficacy against POAAN (Poa annua (POAAN); dosage 80 g/ha) | Pre-emergence efficacy against POAAN (Poa annua (POAAN); dosage 320 g/ha) | Pre-emergence efficacy against POAAN (Poa annua (POAAN); dosage 1280 g/ha) | Pre-emergence efficacy against STEME (Stellaria media (STEME); dosage 80 g/ha) | Pre-emergence efficacy against STEME (Stellaria media (STEME); dosage 320 g/ha) | Pre-emergence efficacy against STEME (Stellaria media (STEME); dosage 1280 g/ha) | Pre-emergence efficacy against KCHSC in % (Kochia scoparia (KCHSC); application rate 80 g/ha) | Pre-emergence efficacy against KCHSC in % (Kochia scoparia (KCHSC); application rate 320 g/ha) | Post-emergence efficacy against SETVI in % (Setaria viridis (SETVI); application rate 320 g/ha) | Post-emergence efficacy against VIOTR in % (Viola tricolor (VIOTR); application rate 80 g/ha) | Post-emergence efficacy against VIOTR in % (Viola tricolor (VIOTR); application rate 320 g/ha) | Post-emergence efficacy against DIGSA in % ([1]; 320 g/ha) | Post-emergence efficacy against DIGSA in % ([1]; 1280 g/ha) | Post-emergence efficacy against ABUTH in % ([2]; application rate 320 g/ha) | Post-emergence efficacy against ECHCG in % ([3]; application rate 80 g/ha) | Post-emergence efficacy against ECHCG in % ([3]; application rate 320 g/ha) | Post-emergence efficacy against SETVI in % (Setaria viridis (SETVI); application rate 80 g/ha) | Pre-emergence efficacy against VERPE (Veronica persica (VERPE); 80 g/ha) | Pre-emergence efficacy against VERPE (Veronica persica (VERPE); 320 g/ha) | Post-emergence efficacy against ABUTH in % ([2]; application rate 80 g/ha)
Cc1cccc(Oc2ncc(F)cn2)c1OS(=O)(=O)CCC(F)(F)F [Example I-45] | 90% | 100% | 100% | 90% | 100% | 100% | 90% | 100% | 80% | 90% | 100% |  |  |  |  |  |  |  |  | 
C=CCS(=O)(=O)Oc1ccccc1Oc1ncc(Cl)cn1 [Example I-36] |  |  | 90% |  |  | 90% |  | 100% |  |  |  |  |  |  |  |  |  |  |  | 
O=S(=O)(CCCC(F)F)Oc1c(F)cccc1Oc1ncc(Cl)cn1 [Example I-56] | 90% | 100% | 100% | 100% | 100% | 100% | 100% | 100% | 100% | 100% | 100% | 90% | 90% | 100% | 80% | 100% | 80% |  |  | 
O=S(=O)(CCC(F)(F)F)Oc1c(Br)cccc1Oc1ncc(F)cn1 [Example I-43] |  | 100% | 100% |  | 100% | 100% | 100% | 100% |  | 90% | 100% |  |  |  |  |  |  |  |  | 
Cc1cccc(Oc2ncc(F)cn2)c1OS(=O)(=O)CCCC(F)(F)F [Example I-46] | 90% | 100% | 100% | 90% | 100% | 100% |  | 100% | 80% | 90% | 100% |  |  | 90% |  | 100% |  |  |  | 
O=S(=O)(CC1CC1)Oc1ccccc1Oc1ncc(Cl)cn1 [Example I-23] | 90% | 90% | 90% | 100% | 100% | 100% |  |  | 100% | 100% | 100% | 90% | 100% | 90% |  | 100% | 80% | 100% | 100% | 
C=CCCS(=O)(=O)Oc1c(F)cccc1Oc1ncc(Cl)cn1 [Example I-50] | 90% | 90% | 100% |  | 100% | 100% | 90% | 100% | 90% | 90% | 100% |  | 90% |  |  | 100% |  |  |  | 
O=S(=O)(CCC(F)(F)F)Oc1c(F)cccc1Oc1ncc(F)cn1 [Example I-47] | 100% | 100% | 100% | 100% | 100% | 100% | 100% | 100% | 100% | 100% | 100% |  |  | 100% |  | 100% |  |  |  | 
COCCS(=O)(=O)Oc1c(F)cccc1Oc1ncc(Cl)cn1 [Example I-52] |  | 90% | 100% | 90% | 90% | 100% | 100% | 100% | 80% |  | 80% |  | 90% |  |  | 100% |  |  |  | 
O=S(=O)(CCC(F)=C(F)F)Oc1c(Cl)cccc1Oc1ncc(Cl)cn1 [Example I-73] |  | 90% | 100% |  | 100% | 100% |  | 100% |  | 90% | 100% | 90% | 100% | 80% |  |  |  |  | 80% | 
N#Cc1cccc(Oc2ncc(Cl)cn2)c1OS(=O)(=O)CCCC(F)(F)F [Example I-81] |  |  |  |  |  |  | 100% | 100% | 100% | 100% | 100% |  |  | 90% | 80% | 80% |  | 100% | 100% | 80%
O=S(=O)(CCCCl)Oc1c(F)cccc1Oc1ncc(Cl)cn1 [Example I-14] | 100% | 100% | 100% | 100% | 100% | 100% |  |  | 100% | 90% | 90% | 100% | 100% | 90% | 90% | 100% | 100% | 100% | 100% | 
CCCCCS(=O)(=O)Oc1ccccc1Oc1ncc(Cl)cn1 [Example I-24] |  | 100% | 100% |  | 100% | 100% |  |  | 100% |  | 80% | 90% | 90% | 90% |  | 80% |  |  | 90% | 
O=S(=O)(CCCC(F)(F)F)Oc1c(F)cccc1Oc1ncc(F)cn1 [Example I-42] | 100% | 100% | 100% | 100% | 100% | 100% | 100% | 100% | 100% | 100% | 100% |  |  | 100% | 100% | 100% | 100% | 100% | 100% | 80%

Source: patent US20240174618A1, “SUBSTITUTED (2-HETEROARYLOXYPHENYL)SULFONATES, SALTS THEREOF AND THEIR USE AS HERBICIDAL AGENTS” (Bayer Aktiengesellschaft, priority 2021, published 2024)
